# From patent US12378279B2, “Nicotinamide riboside hydrogen malate crystal, and its preparation method and application” (priority 2024, dated 2025)
# Assays:
# [1] = Color change and hygroscopicity of products exposed to air (Karl Fischer moisture); assay type: physicochemical; conditions: RH 40%
# Procedure: The nicotinamide riboside hydrogen malate crystal products obtained from the above Examples and Comparative Examples were respectively exposed to air (air humidity and temperature were controlled). […] Moisture (Karl Fischer) determination method was performed using an MC-2000 automatic micro-moisture analyzer from Mince Instruments (Xiamen) Co., Ltd., and a karl fischer reagent from Nanjing Chemical Reagent Co., Ltd.
# [2] = Stability comparison: HPLC purity of samples sealed in polyethylene bags in a constant-temperature-humidity chamber; assay type: physicochemical; conditions: 25° C., RH 40%, sealed PE bag; for Decomposition rate on day 6: (initial sample purity−sample purity)/initial sample purity×100%
# Procedure: The nicotinamide riboside hydrogen malate crystal obtained from the above Examples and Comparative Examples products was sealed in polyethylene (PE) bags, with 1 gram per bag. […] Samples were tested at regular intervals. Sample solution was prepared through the following steps. […] Then, the sample solution was filtered through a membrane, and the sample purity was determined using high performance liquid chromatography (HPLC).
# [3] = Stability comparison: HPLC purity of samples in covered, sealed glass dishes in a constant-temperature-humidity chamber; conditions: 25° C., relative humidity 40%; for Decomposition rate over 6 days: (initial sample purity−sample purity)/initial sample purity×100%; for Purity: sealed glass dish
# Procedure: The nicotinamide riboside hydrogen malate crystal obtained herein and the commercially-available nicotinamide riboside hydrogen malate crystal samples (A and B) were each divided into seven portions and separately placed into seven glass sample dishes, with 1 g of sample in each dish. The dishes were covered and sealed. All the samples were stored in a constant-temperature-humidity chamber at 25° C. and a relative humidity of 40%. The purity of the samples was tested daily. The decomposition rate was calculated using the following formula: decomposition rate=(initial sample purity−sample purity)/initial sample purity×100%.
# Product purity analysis was performed through the following steps. One packet of the sample was dissolved in a 5 mL or 10 mL volumetric flask to prepare a 5 mL or 10 mL sample solution. Then, the purity of the sample was determined using high performance liquid chromatography (HPLC).
# The high performance liquid chromatography (HPLC) method parameters were as follows: isocratic elution with 5% water (0.1% formic acid) and 95% methanol (0.1% formic acid) as the mobile phase, a wavelength of 254 nm, a temperature of 23.0° C. with 54% relative humidity, samples dissolved in methanol, an ODS-2 column (4.6×250 mm, […]) with pressure maintained at 12-13 MPa, a flow rate of 1.0 mL/min, an injection volume of […] and a run time greater than or equal to 15 min.
# [4] = at 112-200° C., heating rate 10° C./min, nitrogen
# Procedure: Thermogravimetric analysis (TGA) was performed using a TGA55 instrument from TA Instruments, USA, with a temperature range of 14.8-300° C., a heating rate of 10° C./min and a nitrogen flow rate of 40 mL/min.
compound,measurement,setting,value
"NC(=O)c1ccc[n+]([C@@H]2O[C@H](CO)[C@@H](O)[C@H]2O)c1.O=C(O)CC(O)C(=O)[O-] [Example 6, nicotinamide riboside hydrogen malate]",Product moisture,"[1]; Day 0, 25° C., listed as EXAMPLE 6",0.29%
same,Product moisture,"[1]; Day 6, 25° C., listed as EXAMPLE 6",3.2%
same,Purity on day 6,[2]; listed as EXAMPLE 6,99.11%
same,Initial purity,[2]; listed as EXAMPLE 6,99.81%
same,Decomposition rate on day 6,[2]; listed as EXAMPLE 6,0.70%
"NC(=O)c1ccc[n+]([C@@H]2O[C@H](CO)[C@@H](O)[C@H]2O)c1.O=C(O)CC(O)C(=O)[O-] [Commercially-available product B, nicotinamide riboside hydrogen malate]",Decomposition rate over 6 days,[3],4.77%
same,Purity,[3]; day 0,99.750%
same,Purity,[3]; day 1,98.843%
same,Purity,[3]; day 2,98.310%
same,Purity,[3]; day 3,97.982%
same,Purity,[3]; day 4,96.530%
same,Purity,[3]; day 5,95.020%
same,Purity,[3]; day 6,94.989%
"NC(=O)c1ccc[n+]([C@@H]2O[C@H](CO)[C@@H](O)[C@H]2O)c1.O=C(O)CC(O)C(=O)[O-] [Example 4, nicotinamide riboside hydrogen malate]",Product moisture,"[1]; Day 0, 25° C., listed as EXAMPLE 4",0.22%
same,Product moisture,"[1]; Day 6, 25° C., listed as EXAMPLE 4",1.8%
same,Purity on day 6,[2]; listed as EXAMPLE 4,98.79%
same,Initial purity,[2]; listed as EXAMPLE 4,99.51%
same,Decomposition rate on day 6,[2]; listed as EXAMPLE 4,0.72%
"NC(=O)c1ccc[n+]([C@@H]2O[C@H](CO)[C@@H](O)[C@H]2O)c1.O=C(O)CC(O)C(=O)[O-] [Commercially-available product A, nicotinamide riboside hydrogen malate]",Decomposition rate over 6 days,[3],8.37%
same,Purity,[3]; day 0,99.900%
same,Purity,[3]; day 1,98.355%
same,Purity,[3]; day 2,96.843%
same,Purity,[3]; day 3,95.752%
same,Purity,[3]; day 4,94.185%
same,Purity,[3]; day 5,93.250%
same,Purity,[3]; day 6,91.538%
"NC(=O)c1ccc[n+]([C@@H]2O[C@H](CO)[C@@H](O)[C@H]2O)c1.O=C(O)CC(O)C(=O)[O-] [Example 5, nicotinamide riboside hydrogen malate]",Product moisture,"[1]; Day 0, 25° C., listed as EXAMPLE 5",0.31%
same,Product moisture,"[1]; Day 6, 25° C., listed as EXAMPLE 5",2.9%
same,Purity on day 6,[2]; listed as EXAMPLE 5,99.15%
same,Initial purity,[2]; listed as EXAMPLE 5,99.78%
same,Decomposition rate on day 6,[2]; listed as EXAMPLE 5,0.63%
"NC(=O)c1ccc[n+]([C@@H]2O[C@H](CO)[C@@H](O)[C@H]2O)c1.O=C(O)CC(O)C(=O)[O-] [Example 2, nicotinamide riboside hydrogen malate]",Product moisture,"[1]; Day 0, 25° C., listed as EXAMPLE 2",0.28%
same,Product moisture,"[1]; Day 6, 25° C., listed as EXAMPLE 2",3.1%
same,Purity on day 6,[2]; listed as EXAMPLE 2,98.97%
same,Initial purity,[2]; listed as EXAMPLE 2,99.72%
same,Decomposition rate on day 6,[2]; listed as EXAMPLE 2,0.75%
"NC(=O)c1ccc[n+]([C@@H]2O[C@H](CO)[C@@H](O)[C@H]2O)c1.O=C(O)CC(O)C(=O)[O-] [Example 1, nicotinamide riboside hydrogen malate]",Product moisture,"[1]; Day 0, 25° C., listed as EXAMPLE 1",0.30%
same,Product moisture,"[1]; Day 6, 25° C., listed as EXAMPLE 1",2%
same,Stability compared to the commercially-available products,[3]; 6 days,better stability
same,Decomposition rate over 6 days,[3]; listed as Product of Example 1,0.759%
same,Purity,"[3]; day 0, listed as Product of Example 1",99.576%
same,Purity,"[3]; day 1, listed as Product of Example 1",99.553%
same,Purity,"[3]; day 2, listed as Product of Example 1",99.494%
same,Purity,"[3]; day 3, listed as Product of Example 1",99.510%
same,Purity,"[3]; day 4, listed as Product of Example 1",99.518%
same,Purity,"[3]; day 5, listed as Product of Example 1",99.499%
same,Purity,"[3]; day 6, listed as Product of Example 1",98.820%
same,Purity on day 6,[2]; listed as EXAMPLE 1,99.65%
same,Initial purity,[2]; listed as EXAMPLE 1,99.67%
same,Decomposition rate on day 6,[2]; listed as EXAMPLE 1,0.72%
same,Weight loss (TGA),[4],1-33%
"NC(=O)c1ccc[n+]([C@@H]2O[C@H](CO)[C@@H](O)[C@H]2O)c1.O=C(O)CC(O)C(=O)[O-] [Example 3, nicotinamide riboside hydrogen malate]",Product appearance,"[1]; Day 0, 25° C.",White
same,Product moisture,"[1]; Day 0, 25° C., listed as EXAMPLE 3",0.30%
same,Product appearance,"[1]; Day 6, 25° C.",White
same,Product moisture,"[1]; Day 6, 25° C., listed as EXAMPLE 3",2.4%
same,Purity on day 6,[2]; listed as EXAMPLE 3,98.95%
same,Initial purity,[2]; listed as EXAMPLE 3,99.69%
same,Decomposition rate on day 6,[2]; listed as EXAMPLE 3,0.74%
